Reference: PubChem BioAssay (NCI)
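Protocol summary: plate cells (96-well), add compound at 5 concentrations, incubate 48 h, interpolate endpoints linearly. The concentration for 50% growth inhibition is given as GI50. TGI is the concentration that stops growth completely.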

Columns and labels:
Assay in all cases: growth of human tumour cells (NCI), 48 h
CCRF-CEM leukemia = system: CCRF-CEM leukemia
ACHN renal = system: ACHN renal
NCI-H460 lung = system: NCI-H460 lung
HCT-116 colon = system: HCT-116 colon
EKVX NSCLC = system: EKVX NSCLC
M14 melanoma = system: M14 melanoma
UACC-62 melanoma = system: UACC-62 melanoma
NCI-H522 lung = system: NCI-H522 lung
CAKI-1 renal = system: CAKI-1 renal
DU-145 prostate = system: DU-145 prostate

Row | Compound | TGI (CCRF-CEM leukemia) | TGI (ACHN renal) | TGI (NCI-H460 lung) | TGI (HCT-116 colon) | TGI (EKVX NSCLC) | TGI (M14 melanoma) | TGI (UACC-62 melanoma) | TGI (NCI-H522 lung) | TGI (CAKI-1 renal) | GI50 (NCI-H522 lung) | GI50 (CCRF-CEM leukemia) | GI50 (ACHN renal) | GI50 (NCI-H460 lung) | GI50 (CAKI-1 renal) | GI50 (HCT-116 colon) | GI50 (UACC-62 melanoma) | GI50 (DU-145 prostate) | TGI (DU-145 prostate) | GI50 (EKVX NSCLC) | GI50 (M14 melanoma)
1 | CC(=O)O[C@H]1CC[C@@]2(C)C(=CC[C@H]3C(CC#N)[C@@](C)(C#N)CCC32)C1 (some centres undefined) | > 100 µM | > 100 µM | > 100 µM | > 100 µM | > 100 µM | > 100 µM | > 100 µM | – | – | – | – | – | – | – | – | – | – | – | – | –
2 | CCOC(=O)NC(=O)c1cn(C2CCCCC2)c(=O)n(C)c1=O | > 100 µM | > 100 µM | > 100 µM | > 100 µM | – | > 100 µM | > 100 µM | > 100 µM | > 100 µM | – | – | – | – | – | – | – | – | – | – | –
3 | CC(=O)OC1CC2C(C)(C)C(=O)C=C[C@]2(C)C2CCC3(C)C(c4ccoc4)C(=O)C4OC43[C@]12C (some centres undefined) | 58.3 µM | 85 µM | 33.3 µM | 26 µM | > 100 µM | 39.5 µM | 34.3 µM | 26.9 µM | > 100 µM | – | – | – | – | – | – | – | – | – | – | –
4 | COC(=O)CCCCCOS(=O)(=O)c1ccc(C)cc1 | > 100 µM | > 100 µM | > 100 µM | > 100 µM | > 100 µM | > 100 µM | > 100 µM | > 100 µM | – | – | – | – | – | – | – | – | – | – | – | –
5 | CCOc1ccc(Nc2ccnc3cc(Cl)ccc23)cc1 | > 100 µM | > 100 µM | > 100 µM | > 100 µM | – | – | > 100 µM | 86.6 µM | > 100 µM | 26.4 µM | > 100 µM | 49.6 µM | 29.1 µM | > 100 µM | 35 µM | > 100 µM | > 100 µM | > 100 µM | – | –
6 | Nc1ccc(C(=O)CC2(O)C(=O)Nc3ccccc32)cc1 (centres undefined) | – | > 100 µM | > 100 µM | > 100 µM | > 100 µM | > 100 µM | > 100 µM | > 100 µM | > 100 µM | – | – | – | – | – | – | – | – | – | – | –
7 | CC1CCCc2c1n[nH]c2CC1CC(=O)NC(=O)C1 (centres undefined) | > 100 µM | > 100 µM | > 100 µM | > 100 µM | > 100 µM | > 100 µM | > 100 µM | > 100 µM | > 100 µM | – | – | – | – | – | – | – | – | – | – | –
8 | CCCC[C@H](CCc1ccccc1)N(C(=O)OC)N1CCC[C@H]1COC | 31.3 µM | 30.4 µM | 31.6 µM | 28.2 µM | 35.2 µM | 82.6 µM | 30.9 µM | 28.1 µM | > 100 µM | – | – | – | – | – | – | – | – | – | – | –
9 | NC1=C(O)/C(=N/NS(=O)(=O)c2ccccc2)C(c2ccc3c(c2)OCO3)O1 (centres undefined) | > 100 µM | > 100 µM | > 100 µM | > 100 µM | > 100 µM | > 100 µM | > 100 µM | > 100 µM | > 100 µM | – | – | – | – | – | – | – | – | – | – | –
10 | OCC#Cc1ccccc1C#Cc1ccc(C#Cc2ccccc2C#CCO)cc1 | > 100 µM | > 100 µM | > 100 µM | 66.7 µM | 97.1 µM | – | > 100 µM | > 100 µM | > 100 µM | 50.1 µM | 38.1 µM | 36.2 µM | 28.3 µM | 68.3 µM | 25.8 µM | 58.6 µM | 27.3 µM | 91.3 µM | 34.6 µM | –
11 | O=[N+]([O-])c1cc(I)cc(/C=N/NS(=O)(=O)c2ccc(F)cc2)c1O | 53.9 µM | 81.5 µM | 44 µM | 43.3 µM | 92.9 µM | 82.3 µM | 41.6 µM | 40.9 µM | 63.1 µM | – | – | – | – | – | – | – | – | – | – | –
12 | C[N+]1(CCNP(=S)(NCC[N+]2(C)Cc3c(ccc4c3OCO4)C3C2c2cc4c(cc2C[C@@H]3O)OCO4)NCC[N+]2(C)Cc3c(ccc4c3OCO4)C3C2c2cc4c(cc2C[C@@H]3O)OCO4)Cc2c(ccc3c2OCO3)C2C1c1cc3c(cc1C[C@H]2O)OCO3 (some centres undefined) | > 383 µM | – | – | – | – | < 0.00191 µM | – | – | 69.5 µM | 2.55 µM | – | 4.16 µM | 0.976 µM | – | 1.43 µM | 1.23 µM | – | – | 45.9 µM | –
13 | Cn1c(=O)nc2n(-c3ccc(F)c(F)c3)c3ccccc3nc-2c1=O | 42.2 µM | 37.2 µM | 35.5 µM | 26.5 µM | 17.7 µM | 45 µM | 5.47 µM | 25.8 µM | > 100 µM | – | – | – | – | – | – | – | – | – | – | –
14 | CC1=NC(C)=C(/C(C)=N/NC(=O)c2ccccc2O)C(C)/C1=C(/C)NNC(=O)c1ccccc1O (centres undefined) | – | 86.4 µM | 66.6 µM | 48.3 µM | 48.4 µM | > 100 µM | 26.3 µM | 43.6 µM | > 100 µM | – | – | – | – | – | – | – | – | – | – | –
15 | CCCCCCCCCCNC(=S)OC | > 100 µM | > 100 µM | > 100 µM | > 100 µM | > 100 µM | > 100 µM | 65 µM | 58.7 µM | > 100 µM | – | – | – | – | – | – | – | – | – | – | –
16 | CSc1nc2c(nc(N)n2C2OC(CO)C(O)C(O)C2O)c(=O)[nH]1 (centres undefined) | > 100 µM | > 100 µM | > 100 µM | > 100 µM | > 100 µM | > 100 µM | > 100 µM | > 100 µM | > 100 µM | – | – | – | – | – | – | – | – | – | – | –
17 | CC[C@H](C)[C@H](NC(=O)c1ncccn1)C(=O)N(C)[C@H](C[C@@H](OC(C)=O)c1nc(C(=O)N[C@@H](Cc2ccccc2)C[C@H](C)C(=O)OC)cs1)C(C)C | 7.19 µM | > 25 µM | > 25 µM | > 25 µM | > 25 µM | > 25 µM | > 25 µM | 7.37 µM | – | 1.01 µM | 0.853 µM | 4.07 µM | 0.925 µM | – | 0.929 µM | 0.848 µM | 1.78 µM | > 25 µM | 4.62 µM | 1.13 µM
18 | CN1C(c2ccccc2)CC(=NO)CC1c1ccccc1 (centres undefined) | > 100 µM | > 100 µM | > 100 µM | 33.6 µM | > 100 µM | > 100 µM | > 100 µM | > 100 µM | > 100 µM | 39.7 µM | 29.2 µM | – | 41.2 µM | – | 33.9 µM | – | – | – | – | –
19 | Clc1ccc(-c2nnc(-c3nn(-c4ccccc4)c4nc5ccccc5nc34)o2)cc1 | 80.8 µM | > 100 µM | > 100 µM | > 100 µM | > 100 µM | > 100 µM | > 100 µM | > 100 µM | > 100 µM | – | – | – | – | – | – | – | – | – | – | –
